Assay results as given in US20250034216A1, “STEREOSELECTIVE COVALENT LIGANDS FOR ONCOGENIC AND IMMUNOLOGICAL PROTEINS” (The Scripps Research Institute, priority 2021, published 2025).

Experiments:
[1] = test system: 20S core proteasomal complex; assay: SEC-MS elution profile; type: cell-based, human; settings: 22Rv1 cells, 20 μM, 3 h
Experimental: Sample preparation: Cells (adherent: 15 cm dishes, suspension: 2 million cells/mL) were treated with electrophilic probes in situ for indicated times and concentrations (elaborated fragments: 20 μM, 3 h), washed with ice-cold PBS, and flash frozen in liquid nitrogen. Cell pellets were lysed by sonication (8 pulses, 40% power) in 600 μL ice-cold PBS supplemented with cOmplete protease inhibitors (1 tablet/10 mL of PBS), ultracentrifuged for 20 min at 100,000 g, then normalized to a standardized concentration (typically 1.5 to 2.5 mg/mL). Clarified lysate was injected into a Superdex 200 Increase 10/300 GL column attached to an AKTA pure FPLC system. Proteins were fractionated using an isocratic gradient (PBS) running at 0.5 mL/min into 5 fractions 2 mL wide, beginning at 8 mL and ending at 18 mL. Eluate was collected into 15 mL tubes containing 12 mL of acetone at 4C. […]
Data processing: Fractional distributions for each peptide-spectra match with a total TMT reporter ion intensity were calculated by dividing the reporter ion intensity for each TMT channel by the summed intensity across the 5 TMT channels corresponding to a single treatment condition (Equation 1). […] Euclidean distances (SE shift scores, Equation 2) were calculated using the average elution profile for each protein across replicates, combined by treatment condition and cell line. […]

[2] = test system: SIINFEKL presentation in E.G7-Ova cells; assay: FACS analysis with citric acid wash; type: cell-based, mouse; settings: 4 h treatment, recovery up to 4 h
Experimental: E.G7-Ova cells (2 million/mL) were treated with compounds for 4 hours, washed with PBS, and then washed with 1 mL of 131 mM citric acid for 2 minutes, quenched with 1 mL 66 mM NaH2PO4, and then washed with PBS 3 times. Cells were then resuspended in warm RPMI and allowed to recover for the indicated period, after which cells were washed with PBS and transferred to 96 well plates for staining. Each well was washed with 200 μL PBS, and then stained for 20 minutes with 50 μL of staining solution: 1:1000 fixable near-IR LIVE/DEAD stain (Invitrogen) and 1:200 dilution of anti-SIINFEKL (BioLegend) or anti-Kb (BioLegend) antibody in FACS buffer (2% FBS in PBS supplemented with PenStrep and sterile filtered). Additional wells were used as unstained or singly-stained controls. After staining, cells were washed with PBS, then fixed in 200 μL 4% paraformaldehyde in PBS for 15 minutes. Cells were resuspended in 75 μL FACS buffer and analyzed on a Novocyte flow cytometer. The corresponding data in FIG. 2J are presented as the average percentage of median fluorescence intensity relative to DMSO treated control±SD from n=4 replicates. The corresponding data in FIG. 2K are presented as the average percentage of MFI relative to DMSO treated control±SD from n=3 replicates. Statistical analysis was performed using GraphPad PRISM Version 9.0.0.

SF3B1 (~150 kDa protein) = target: T1, SF3B1 (~150 kDa protein) (Homo sapiens, UniProt O75533+Q7RTV0); assay: Gel-based ABPP for SF3B1 cysteine engagement; type: binding; settings: 22Rv1 cells, 24 h pre-treatment (1 μM WX-02-23/WX-02-43, 10 nM pladienolide B)
T1 construct: Cysteine engagement data from 22Rv1 cells treated; endogenous in cells; host or cells: 22Rv1
T1 sequence (O75533 whole entry): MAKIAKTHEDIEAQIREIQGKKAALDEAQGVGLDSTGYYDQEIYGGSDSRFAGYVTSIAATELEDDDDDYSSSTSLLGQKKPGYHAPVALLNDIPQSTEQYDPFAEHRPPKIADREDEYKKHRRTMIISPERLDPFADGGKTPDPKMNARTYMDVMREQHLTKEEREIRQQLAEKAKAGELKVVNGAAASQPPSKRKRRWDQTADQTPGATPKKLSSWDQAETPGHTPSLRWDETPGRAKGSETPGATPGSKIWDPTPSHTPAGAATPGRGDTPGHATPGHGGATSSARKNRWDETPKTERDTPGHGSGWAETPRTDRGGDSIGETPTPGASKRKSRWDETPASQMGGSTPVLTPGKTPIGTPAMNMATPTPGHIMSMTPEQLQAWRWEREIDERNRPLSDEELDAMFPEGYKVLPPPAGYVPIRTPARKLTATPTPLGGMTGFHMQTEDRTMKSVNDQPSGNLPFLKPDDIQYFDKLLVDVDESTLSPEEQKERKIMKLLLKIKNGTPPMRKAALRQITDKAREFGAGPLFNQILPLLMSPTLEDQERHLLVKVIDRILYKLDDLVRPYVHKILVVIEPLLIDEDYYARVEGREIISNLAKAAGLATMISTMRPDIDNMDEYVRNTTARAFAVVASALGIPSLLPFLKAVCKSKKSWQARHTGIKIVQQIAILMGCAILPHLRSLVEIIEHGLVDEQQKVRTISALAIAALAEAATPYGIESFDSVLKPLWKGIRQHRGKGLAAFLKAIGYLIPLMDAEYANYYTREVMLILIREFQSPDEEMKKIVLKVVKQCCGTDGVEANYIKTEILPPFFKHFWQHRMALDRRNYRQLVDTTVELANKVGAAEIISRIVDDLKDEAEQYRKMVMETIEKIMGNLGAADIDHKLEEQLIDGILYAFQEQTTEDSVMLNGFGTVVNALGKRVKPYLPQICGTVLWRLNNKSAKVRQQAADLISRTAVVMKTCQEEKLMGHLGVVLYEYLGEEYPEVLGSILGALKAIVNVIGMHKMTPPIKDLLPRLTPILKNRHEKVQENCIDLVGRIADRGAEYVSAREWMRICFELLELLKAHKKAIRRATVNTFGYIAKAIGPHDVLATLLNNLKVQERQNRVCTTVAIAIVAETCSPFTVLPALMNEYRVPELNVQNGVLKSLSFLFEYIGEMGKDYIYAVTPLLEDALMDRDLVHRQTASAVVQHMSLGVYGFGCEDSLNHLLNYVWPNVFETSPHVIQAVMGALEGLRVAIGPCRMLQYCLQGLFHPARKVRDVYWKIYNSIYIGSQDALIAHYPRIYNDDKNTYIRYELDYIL
T1 sequence (Q7RTV0 whole entry): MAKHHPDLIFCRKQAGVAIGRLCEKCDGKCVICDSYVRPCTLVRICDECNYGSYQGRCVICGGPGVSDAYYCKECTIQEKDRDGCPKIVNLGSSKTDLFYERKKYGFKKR
T1 sequence (Q15393 whole entry partner): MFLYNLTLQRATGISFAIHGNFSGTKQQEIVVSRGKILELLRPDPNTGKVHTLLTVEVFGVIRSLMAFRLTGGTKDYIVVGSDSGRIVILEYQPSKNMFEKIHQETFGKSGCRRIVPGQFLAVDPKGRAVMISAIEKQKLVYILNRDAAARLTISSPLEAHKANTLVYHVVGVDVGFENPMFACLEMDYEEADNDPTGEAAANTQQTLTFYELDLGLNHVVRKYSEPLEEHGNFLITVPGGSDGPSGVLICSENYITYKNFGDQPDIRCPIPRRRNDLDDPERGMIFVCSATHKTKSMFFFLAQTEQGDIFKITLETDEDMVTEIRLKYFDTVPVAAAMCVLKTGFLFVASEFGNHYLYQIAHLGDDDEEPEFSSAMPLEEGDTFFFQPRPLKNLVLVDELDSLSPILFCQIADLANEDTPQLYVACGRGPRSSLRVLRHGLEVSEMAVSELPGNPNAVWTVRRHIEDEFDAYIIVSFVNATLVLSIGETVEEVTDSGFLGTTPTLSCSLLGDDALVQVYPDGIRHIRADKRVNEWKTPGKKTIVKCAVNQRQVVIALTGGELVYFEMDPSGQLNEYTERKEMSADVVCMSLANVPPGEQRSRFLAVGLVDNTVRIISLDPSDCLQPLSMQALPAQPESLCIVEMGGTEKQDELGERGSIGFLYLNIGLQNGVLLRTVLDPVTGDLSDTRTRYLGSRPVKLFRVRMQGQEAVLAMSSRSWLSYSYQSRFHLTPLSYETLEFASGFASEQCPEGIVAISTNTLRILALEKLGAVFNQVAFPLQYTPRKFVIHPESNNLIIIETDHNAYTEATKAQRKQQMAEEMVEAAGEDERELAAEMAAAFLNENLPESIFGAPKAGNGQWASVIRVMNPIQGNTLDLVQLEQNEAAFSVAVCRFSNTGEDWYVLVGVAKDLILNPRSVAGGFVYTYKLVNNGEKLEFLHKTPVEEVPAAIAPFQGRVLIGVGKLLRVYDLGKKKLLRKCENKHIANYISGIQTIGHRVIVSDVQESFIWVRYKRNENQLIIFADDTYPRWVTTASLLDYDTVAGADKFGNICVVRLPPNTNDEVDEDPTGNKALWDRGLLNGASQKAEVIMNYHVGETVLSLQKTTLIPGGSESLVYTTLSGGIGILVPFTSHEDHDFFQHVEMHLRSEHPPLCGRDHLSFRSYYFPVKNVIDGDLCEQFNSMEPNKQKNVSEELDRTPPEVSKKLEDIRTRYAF
T1 sequence (Q9BWJ5 whole entry partner): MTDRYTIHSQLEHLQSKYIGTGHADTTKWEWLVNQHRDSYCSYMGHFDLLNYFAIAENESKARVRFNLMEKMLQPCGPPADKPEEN
Experimental: 22Rv1 cells were treated with indicated compounds for 24 h, chased with click probe for 1 h in situ, harvested and lysed in PBS with protease inhibitors (cOmplete), and then normalized to 2.0 mg/mL. Reagents for the CuAAC click reaction were pre-mixed prior to addition to the samples (3 μL of click reaction mix for 25 μL of lysate). After 1 hour of click labeling, 4×SDS running buffer was added to samples, which were then analyzed by SDS-PAGE.

C=CC(=O)N1C[C@H](c2ccc(Br)cc2)[C@@H]1C(=O)Nc1cccc2cccnc12 [MY-1B, (2R,3S)-1-acryloyl-3-(4-bromophenyl)-N-(quinolin-8-yl)azetidine-2-carboxamide]
SEC migration of 20S core proteasomal complex subunits [1]: unaffected

CC#CC(=O)N1C[C@H](c2ccc(Br)cc2)[C@@H]1C(=O)Nc1cccc2cccnc12 [MY-45B, (2R,3S)-3-(4-bromophenyl)-1-(but-2-ynoyl)-N-(quinolin-8-yl)azetidine-2-carboxamide]
SIINFEKL presentation after acid wash [2]: time- and concentration-dependent reduction in SIINFEKL presentation

C=CC(=O)N1[C@H](c2ccc3c(c2)OCO3)c2[nH]c3ccccc3c2C[C@H]1C(=O)N1CCOCC1 [WX-02-23, 1-((1R,3S)-1-(benzo[d][1,3]dioxol-S-yl)-3-(morpholine-4-carbonyl)-1,3,4,9-tetrahydro-2H-pyrido [3,4-b]indol-2-yl)prop-2-en-1-one]
blockade of WX-01-10 labeling of the 150 kDa protein (SF3B1 (~150 kDa protein)): blocked
